Read-outs that look alike come from different tables or passages of the source.
Experiments:
[1] = target: T1, Aryl hydrocarbon Receptor (AhR) (Rattus norvegicus, UniProt P41738); assay: AhR (PAH) CALUX reporter gene assay; details: EC50 AhR reference compound (mean)
T1 sequence (P41738 10-853): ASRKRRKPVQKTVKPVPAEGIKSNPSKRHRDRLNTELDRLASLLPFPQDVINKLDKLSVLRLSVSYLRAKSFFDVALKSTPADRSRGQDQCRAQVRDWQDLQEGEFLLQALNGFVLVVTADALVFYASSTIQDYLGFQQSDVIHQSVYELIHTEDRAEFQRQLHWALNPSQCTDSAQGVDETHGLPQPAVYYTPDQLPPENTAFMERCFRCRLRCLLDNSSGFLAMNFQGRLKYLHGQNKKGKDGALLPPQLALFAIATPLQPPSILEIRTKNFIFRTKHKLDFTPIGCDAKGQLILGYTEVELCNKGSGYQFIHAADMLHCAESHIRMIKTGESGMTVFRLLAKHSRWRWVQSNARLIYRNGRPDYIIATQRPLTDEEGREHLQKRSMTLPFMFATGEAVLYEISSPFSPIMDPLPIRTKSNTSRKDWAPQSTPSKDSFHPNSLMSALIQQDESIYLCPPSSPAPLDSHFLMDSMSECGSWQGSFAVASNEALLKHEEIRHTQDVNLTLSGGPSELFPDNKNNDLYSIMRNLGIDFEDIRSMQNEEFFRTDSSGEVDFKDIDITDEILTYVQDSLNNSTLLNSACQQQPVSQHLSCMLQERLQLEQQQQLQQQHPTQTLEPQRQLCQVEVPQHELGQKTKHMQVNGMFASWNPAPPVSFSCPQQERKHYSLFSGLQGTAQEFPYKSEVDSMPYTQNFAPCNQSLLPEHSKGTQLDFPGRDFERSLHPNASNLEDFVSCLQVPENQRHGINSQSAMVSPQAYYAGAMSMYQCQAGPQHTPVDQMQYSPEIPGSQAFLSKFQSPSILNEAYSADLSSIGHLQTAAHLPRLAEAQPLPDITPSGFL
Procedure: Briefly, cells were seeded in a 96-well plate (VWR, Dietikon, Switzerland) and incubated for 24 h at 37 °C, 5% CO2 and 100% humidity. […] In addition, a serial dilution of each of the different migrates were exposed in triplicates. After 24 h of exposure for cytotoxicity, ERα, AR and 4 h of exposure for poly-aromatic hydrocarbons (PAH) of exposure, the luciferase activity is measured with a luminometer plate reader (Mithras, Berthold, Germany).
Relative luminescence units obtained were processed as described by proprietary calculation template (BDS) (Amsterdam, The Netherlands). Receptor-binding activation was quantified as the amount of relative luciferase units (RLU) emitted after samples’ exposure. The signal is proportional to the amount of ligand-specific receptor-binding activation. After normalization to solvent control (DMSO) the percentage of relative induction (RI) or relative inhibition (RInh) was calculated for the selected nuclear receptors and the cell viability. The samples were then expressed as percentage of the maximum reference compound response. All dose responses and dilutions were performed in technical triplicates. […] For the PAH CALUX bioassay, the threshold level was set as 10%. […] Dose–response obtained between laboratories C and D was compared.

[2] = target: T1, Aryl hydrocarbon Receptor (AhR); details: read-out: EC50 standard range, AhR reference compound; historical range; ref BDS BioDetection Systems historical data; cited from earlier work

c1ccc2c(c1)cc1ccc3cccc4ccc2c1c34 [Benzo(a)pyrene, benzo[a]pyrene]
EC50 ([1]; LAB C): 3.3 nM | EC50 ([1]; LAB D): 7.2 nM | EC50 [2]: 1.6 to 16 nM

Source: PMC9962921, “Interlaboratory Study to Evaluate a Testing Protocol for the Safety of Food Packaging Coatings” (Toxics, 2023)
